Experimental findings from the supplement of paper PMC12076712 are described below.

Holding throughout (assay): pIC50, kinobeads binding competition
For one test, the target named is UniProt Q9H093. The settings on record: cell material: Lysate mix. In a few lines: (§1)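 Either living Jurkat cells (60 min at 37 °C, then lysis) or lysates (60 min at 4 °C) were treated with nine compound concentrations from a top of 30 μM, in 1:4 steps for cells and 1:5 steps for lysates. The lysates were from Jurkat cells or a 1:1:1:1 mix of HEK293, K-562, HepG2 and placenta. Kinobeads-bound proteins were digested and quantified by TMT10 LC-MS/MS. pIC50 was calculated by logistic dose-response fitting (R drc package) of fold changes relative to vehicle, in biological duplicates.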

Another test concerns the target LZK (UniProt O43283). The note with it: cell material: Lysate mix. Put shortly:
as §1

The target of another test is T1, ZAP70 (UniProt P43403).
T1 sequence (whole entry): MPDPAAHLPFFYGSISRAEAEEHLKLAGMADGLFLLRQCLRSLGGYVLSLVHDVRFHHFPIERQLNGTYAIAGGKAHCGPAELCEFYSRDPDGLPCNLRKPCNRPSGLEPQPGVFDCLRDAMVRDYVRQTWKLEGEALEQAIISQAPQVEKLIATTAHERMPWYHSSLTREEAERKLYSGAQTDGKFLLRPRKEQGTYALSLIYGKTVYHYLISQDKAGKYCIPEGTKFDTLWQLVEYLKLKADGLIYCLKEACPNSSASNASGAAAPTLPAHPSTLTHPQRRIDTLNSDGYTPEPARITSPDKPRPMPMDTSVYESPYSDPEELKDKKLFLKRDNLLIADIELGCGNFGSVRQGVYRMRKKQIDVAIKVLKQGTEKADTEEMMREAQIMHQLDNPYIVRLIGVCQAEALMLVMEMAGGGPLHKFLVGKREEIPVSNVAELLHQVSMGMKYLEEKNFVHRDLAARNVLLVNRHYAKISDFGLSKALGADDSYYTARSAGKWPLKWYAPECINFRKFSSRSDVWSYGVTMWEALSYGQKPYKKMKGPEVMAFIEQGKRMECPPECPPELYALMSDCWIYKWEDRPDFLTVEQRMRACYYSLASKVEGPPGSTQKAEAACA
In a few lines: as §1

The target of the next test is T2, CAMK4 (UniProt Q16566).
T2 sequence (whole entry): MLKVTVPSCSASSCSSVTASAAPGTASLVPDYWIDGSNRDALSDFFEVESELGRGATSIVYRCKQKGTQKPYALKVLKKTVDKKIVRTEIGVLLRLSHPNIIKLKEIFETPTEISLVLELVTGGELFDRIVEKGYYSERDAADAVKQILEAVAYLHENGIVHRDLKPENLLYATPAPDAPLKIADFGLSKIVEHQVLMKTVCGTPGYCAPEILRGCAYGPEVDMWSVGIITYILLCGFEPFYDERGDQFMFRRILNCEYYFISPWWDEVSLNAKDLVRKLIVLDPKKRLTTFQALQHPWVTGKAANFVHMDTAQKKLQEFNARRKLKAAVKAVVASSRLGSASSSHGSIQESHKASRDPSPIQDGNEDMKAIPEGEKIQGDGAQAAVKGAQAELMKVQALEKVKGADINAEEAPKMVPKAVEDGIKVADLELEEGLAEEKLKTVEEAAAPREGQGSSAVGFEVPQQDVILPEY
In a few lines: as §1

For a further test, the target named is T3, RIOK1 (UniProt Q9BRS2).
T3 sequence (whole entry): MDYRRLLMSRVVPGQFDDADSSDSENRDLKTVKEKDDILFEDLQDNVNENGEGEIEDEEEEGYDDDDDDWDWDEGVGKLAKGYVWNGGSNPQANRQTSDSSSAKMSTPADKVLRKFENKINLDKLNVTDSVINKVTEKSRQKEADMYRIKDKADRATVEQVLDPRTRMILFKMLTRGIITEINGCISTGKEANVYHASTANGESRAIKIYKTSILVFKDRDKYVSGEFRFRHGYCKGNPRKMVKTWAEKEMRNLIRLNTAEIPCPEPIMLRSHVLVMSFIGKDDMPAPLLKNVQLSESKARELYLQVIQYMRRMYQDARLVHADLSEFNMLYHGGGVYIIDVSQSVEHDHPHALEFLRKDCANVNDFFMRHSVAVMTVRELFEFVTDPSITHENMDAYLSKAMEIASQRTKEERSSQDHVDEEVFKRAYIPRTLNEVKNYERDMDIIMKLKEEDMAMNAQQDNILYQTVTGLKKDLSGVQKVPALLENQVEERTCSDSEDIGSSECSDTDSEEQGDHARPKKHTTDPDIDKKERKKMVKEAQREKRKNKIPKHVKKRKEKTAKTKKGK
In a few lines:
as §1

Another test has as its target TLK1 (UniProt Q9UKI8). Put shortly:
as §1

The target of a further test is T4, PRKG2 (UniProt Q13237).
T4 sequence (whole entry): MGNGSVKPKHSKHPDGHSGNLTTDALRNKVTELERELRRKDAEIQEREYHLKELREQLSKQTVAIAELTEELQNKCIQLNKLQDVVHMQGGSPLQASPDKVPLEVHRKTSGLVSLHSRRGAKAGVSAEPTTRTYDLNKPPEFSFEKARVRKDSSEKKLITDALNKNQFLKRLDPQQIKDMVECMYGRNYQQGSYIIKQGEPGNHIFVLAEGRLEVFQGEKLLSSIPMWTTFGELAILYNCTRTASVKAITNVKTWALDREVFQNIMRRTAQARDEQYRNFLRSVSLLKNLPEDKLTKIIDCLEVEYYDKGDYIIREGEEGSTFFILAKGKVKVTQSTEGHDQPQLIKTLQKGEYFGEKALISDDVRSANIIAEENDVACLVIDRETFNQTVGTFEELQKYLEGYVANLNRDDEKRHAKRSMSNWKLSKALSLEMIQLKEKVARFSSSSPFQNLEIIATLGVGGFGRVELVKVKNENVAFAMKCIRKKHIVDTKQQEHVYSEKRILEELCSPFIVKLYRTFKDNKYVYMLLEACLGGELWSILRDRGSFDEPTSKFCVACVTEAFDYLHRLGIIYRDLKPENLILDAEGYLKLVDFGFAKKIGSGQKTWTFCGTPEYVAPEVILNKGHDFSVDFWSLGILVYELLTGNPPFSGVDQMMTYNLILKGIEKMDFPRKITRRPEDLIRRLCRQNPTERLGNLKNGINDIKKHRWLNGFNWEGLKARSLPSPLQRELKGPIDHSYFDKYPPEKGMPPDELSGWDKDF
The settings on record: cell material: Jurkat lysate. In a few lines: as §1

The next test has as its target PIK3R4 (UniProt Q99570). The settings on record: cell material: Jurkat cells. Put shortly: as §1
The target of another test is TLK2 (UniProt Q86UE8). The settings on record: cell material: Jurkat cells. Put shortly:
as §1

For the next test, the target named is RIPK3 (UniProt Q9Y572). In a few lines:
as §1

Each structure is given as a SMILES string.

In general, pIC50 refers to the IC50 on a negative log10 scale, so that one unit is a factor of ten. Low readings indicate a large IC50, high ones a small IC50.

Chain of RIPK3 (Q9Y572 whole entry, looked up): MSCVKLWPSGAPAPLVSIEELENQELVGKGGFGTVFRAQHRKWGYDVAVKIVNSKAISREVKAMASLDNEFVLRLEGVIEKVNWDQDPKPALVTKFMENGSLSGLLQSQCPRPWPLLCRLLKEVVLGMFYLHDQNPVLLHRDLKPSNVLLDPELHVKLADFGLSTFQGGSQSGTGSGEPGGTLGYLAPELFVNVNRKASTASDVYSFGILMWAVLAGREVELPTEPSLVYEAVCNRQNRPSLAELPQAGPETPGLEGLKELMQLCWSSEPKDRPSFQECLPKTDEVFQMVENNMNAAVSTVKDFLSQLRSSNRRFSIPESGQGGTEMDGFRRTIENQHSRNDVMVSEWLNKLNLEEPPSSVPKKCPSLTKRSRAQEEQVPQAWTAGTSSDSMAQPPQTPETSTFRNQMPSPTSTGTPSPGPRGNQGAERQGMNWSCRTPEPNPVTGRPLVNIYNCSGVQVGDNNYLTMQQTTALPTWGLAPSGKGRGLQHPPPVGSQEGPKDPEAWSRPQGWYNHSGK
Chain of UniProt Q9H093 (Q9H093 whole entry): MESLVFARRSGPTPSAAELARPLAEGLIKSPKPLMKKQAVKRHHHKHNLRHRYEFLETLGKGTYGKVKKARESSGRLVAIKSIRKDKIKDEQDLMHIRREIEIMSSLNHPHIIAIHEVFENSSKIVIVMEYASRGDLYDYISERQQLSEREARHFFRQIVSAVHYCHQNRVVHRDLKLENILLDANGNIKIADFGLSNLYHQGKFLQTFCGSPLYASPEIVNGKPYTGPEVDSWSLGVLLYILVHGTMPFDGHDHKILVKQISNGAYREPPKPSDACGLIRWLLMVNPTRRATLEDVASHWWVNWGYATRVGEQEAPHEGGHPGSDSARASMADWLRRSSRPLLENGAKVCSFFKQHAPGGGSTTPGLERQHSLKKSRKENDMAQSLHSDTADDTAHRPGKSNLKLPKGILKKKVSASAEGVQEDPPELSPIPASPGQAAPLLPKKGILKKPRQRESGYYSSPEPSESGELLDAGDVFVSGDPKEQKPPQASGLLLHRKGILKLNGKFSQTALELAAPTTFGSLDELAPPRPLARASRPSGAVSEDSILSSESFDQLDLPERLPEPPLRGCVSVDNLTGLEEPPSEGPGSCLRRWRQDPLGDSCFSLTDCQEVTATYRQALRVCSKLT
Chain of LZK (O43283 whole entry): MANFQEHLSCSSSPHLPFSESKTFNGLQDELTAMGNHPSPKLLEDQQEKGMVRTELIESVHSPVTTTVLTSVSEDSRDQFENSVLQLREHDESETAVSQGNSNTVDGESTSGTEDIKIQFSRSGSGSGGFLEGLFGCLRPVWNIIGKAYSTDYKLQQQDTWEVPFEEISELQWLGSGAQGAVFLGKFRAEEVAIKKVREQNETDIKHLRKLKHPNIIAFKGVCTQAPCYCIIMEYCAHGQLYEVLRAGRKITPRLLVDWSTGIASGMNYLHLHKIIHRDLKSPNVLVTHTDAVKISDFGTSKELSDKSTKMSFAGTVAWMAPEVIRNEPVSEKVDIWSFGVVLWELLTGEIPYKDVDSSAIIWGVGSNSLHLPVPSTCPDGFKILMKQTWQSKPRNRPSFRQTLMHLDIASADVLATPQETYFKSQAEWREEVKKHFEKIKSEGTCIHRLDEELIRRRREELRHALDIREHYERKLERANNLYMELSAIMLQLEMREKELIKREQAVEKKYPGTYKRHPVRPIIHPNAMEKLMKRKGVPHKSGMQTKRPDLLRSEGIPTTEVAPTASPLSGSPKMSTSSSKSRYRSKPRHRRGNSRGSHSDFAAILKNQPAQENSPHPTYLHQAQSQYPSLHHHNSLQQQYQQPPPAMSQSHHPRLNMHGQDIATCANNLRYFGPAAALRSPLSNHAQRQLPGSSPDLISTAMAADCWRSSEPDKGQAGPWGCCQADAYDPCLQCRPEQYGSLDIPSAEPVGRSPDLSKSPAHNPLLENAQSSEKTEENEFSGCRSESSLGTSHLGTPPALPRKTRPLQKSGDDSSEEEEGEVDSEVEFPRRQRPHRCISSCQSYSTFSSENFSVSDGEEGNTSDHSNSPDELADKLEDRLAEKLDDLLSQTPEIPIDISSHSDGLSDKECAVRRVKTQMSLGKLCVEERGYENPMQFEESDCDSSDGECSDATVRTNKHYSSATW
Chain of TLK2 (Q86UE8 whole entry, looked up): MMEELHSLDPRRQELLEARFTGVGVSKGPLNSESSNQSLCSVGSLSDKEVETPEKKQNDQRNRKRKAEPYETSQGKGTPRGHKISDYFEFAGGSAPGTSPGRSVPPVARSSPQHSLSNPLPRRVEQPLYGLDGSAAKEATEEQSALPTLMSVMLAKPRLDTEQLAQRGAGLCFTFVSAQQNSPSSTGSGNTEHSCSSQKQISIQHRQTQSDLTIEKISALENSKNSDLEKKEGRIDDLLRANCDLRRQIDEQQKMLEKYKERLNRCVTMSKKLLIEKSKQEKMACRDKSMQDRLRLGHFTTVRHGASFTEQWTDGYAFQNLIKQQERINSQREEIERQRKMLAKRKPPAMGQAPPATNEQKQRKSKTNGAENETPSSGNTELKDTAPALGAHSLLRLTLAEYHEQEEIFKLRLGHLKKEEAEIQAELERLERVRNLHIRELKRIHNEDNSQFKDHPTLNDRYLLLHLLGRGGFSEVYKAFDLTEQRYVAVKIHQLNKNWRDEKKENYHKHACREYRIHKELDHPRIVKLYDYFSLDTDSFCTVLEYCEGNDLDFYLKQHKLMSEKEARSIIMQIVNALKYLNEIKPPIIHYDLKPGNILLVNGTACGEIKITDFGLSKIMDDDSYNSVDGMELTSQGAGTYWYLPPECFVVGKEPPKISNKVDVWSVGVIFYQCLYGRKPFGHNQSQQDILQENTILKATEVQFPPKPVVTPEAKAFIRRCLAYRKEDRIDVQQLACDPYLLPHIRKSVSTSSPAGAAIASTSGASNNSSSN
Chain of PIK3R4 (Q99570 whole entry): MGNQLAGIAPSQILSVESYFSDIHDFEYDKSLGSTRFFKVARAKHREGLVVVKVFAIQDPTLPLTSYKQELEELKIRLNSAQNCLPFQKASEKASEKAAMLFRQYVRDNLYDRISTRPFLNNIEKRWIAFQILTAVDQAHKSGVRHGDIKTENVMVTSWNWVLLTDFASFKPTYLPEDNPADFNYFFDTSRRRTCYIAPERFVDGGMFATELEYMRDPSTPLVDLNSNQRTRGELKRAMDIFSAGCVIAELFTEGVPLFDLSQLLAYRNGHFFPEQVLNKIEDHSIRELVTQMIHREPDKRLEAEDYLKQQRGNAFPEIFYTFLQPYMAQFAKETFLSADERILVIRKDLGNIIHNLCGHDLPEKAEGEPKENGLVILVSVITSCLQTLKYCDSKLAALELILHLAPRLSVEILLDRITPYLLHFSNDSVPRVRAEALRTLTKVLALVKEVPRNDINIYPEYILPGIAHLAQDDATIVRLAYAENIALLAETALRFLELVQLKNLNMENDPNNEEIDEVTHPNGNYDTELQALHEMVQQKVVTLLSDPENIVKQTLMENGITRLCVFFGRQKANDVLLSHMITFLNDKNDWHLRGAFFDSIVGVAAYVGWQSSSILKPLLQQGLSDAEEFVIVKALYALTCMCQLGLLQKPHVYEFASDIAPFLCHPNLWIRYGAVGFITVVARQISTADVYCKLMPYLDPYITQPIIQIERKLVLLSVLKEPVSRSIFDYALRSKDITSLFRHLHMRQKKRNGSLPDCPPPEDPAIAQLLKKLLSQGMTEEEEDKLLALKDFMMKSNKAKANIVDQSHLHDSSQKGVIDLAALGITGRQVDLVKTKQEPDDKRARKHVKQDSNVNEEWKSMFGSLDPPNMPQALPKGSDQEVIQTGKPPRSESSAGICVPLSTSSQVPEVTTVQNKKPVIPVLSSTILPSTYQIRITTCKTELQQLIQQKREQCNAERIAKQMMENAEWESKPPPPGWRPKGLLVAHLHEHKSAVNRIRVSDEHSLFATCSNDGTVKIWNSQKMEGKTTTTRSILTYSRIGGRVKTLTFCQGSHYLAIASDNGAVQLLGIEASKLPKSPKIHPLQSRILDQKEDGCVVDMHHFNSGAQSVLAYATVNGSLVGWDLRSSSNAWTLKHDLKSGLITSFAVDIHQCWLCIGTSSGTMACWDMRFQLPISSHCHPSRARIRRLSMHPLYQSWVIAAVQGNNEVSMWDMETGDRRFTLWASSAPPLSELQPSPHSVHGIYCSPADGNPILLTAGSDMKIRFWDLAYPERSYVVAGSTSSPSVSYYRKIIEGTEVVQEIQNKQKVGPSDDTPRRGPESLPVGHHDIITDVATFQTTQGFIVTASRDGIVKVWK
Chain of TLK1 (Q9UKI8 whole entry): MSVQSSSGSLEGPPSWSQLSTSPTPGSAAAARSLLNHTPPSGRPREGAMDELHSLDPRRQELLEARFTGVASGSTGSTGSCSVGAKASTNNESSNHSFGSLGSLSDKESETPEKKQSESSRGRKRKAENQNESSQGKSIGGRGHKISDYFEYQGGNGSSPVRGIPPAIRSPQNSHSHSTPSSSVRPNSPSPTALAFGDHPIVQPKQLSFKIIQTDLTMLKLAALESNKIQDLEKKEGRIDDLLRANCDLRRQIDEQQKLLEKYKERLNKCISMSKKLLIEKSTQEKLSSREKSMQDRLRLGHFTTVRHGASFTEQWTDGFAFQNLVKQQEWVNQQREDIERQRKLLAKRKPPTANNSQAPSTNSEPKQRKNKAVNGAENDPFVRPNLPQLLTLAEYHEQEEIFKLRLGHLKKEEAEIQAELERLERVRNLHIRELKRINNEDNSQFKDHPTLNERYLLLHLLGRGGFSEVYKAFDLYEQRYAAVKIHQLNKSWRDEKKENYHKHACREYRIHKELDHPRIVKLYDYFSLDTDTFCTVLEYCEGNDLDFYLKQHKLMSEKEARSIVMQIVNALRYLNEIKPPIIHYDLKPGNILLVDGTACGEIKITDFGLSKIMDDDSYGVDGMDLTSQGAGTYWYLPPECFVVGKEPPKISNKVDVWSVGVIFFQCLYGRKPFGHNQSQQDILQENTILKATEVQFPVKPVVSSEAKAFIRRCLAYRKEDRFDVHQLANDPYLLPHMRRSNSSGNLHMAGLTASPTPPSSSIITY

Consider `Cc1cc(Nc2cc(C(=O)NCCNC(=O)OC3CC/C=C/CCC3)nc(N3CCN(Cc4ccc(S(=O)(=O)F)cc4)CC3)n2)n[nH]1` (stereo unspecified), for which the pIC50 on UniProt Q9H093 and at LZK was less than 4.52 in each case.
`C#CCNC(=O)c1cc(Nc2cc(C3CC3)[nH]n2)nc(N2CCN(Cc3ccc(S(=O)(=O)F)cc3)CC2)n1`: the pIC50 is 6.43 at ZAP70 (cell material: Jurkat cells); less than 4.52 at ZAP70 (cell material: Jurkat lysate); 5.09 at CAMK4 (cell material: Jurkat cells); less than 4.52 at RIOK1 (cell material: Jurkat cells); less than 4.52 on RIOK1 (cell material: Jurkat lysate); 4.82 on TLK1 (cell material: Jurkat cells). Also, the pIC50 on PRKG2 was less than 4.52; at PIK3R4, 4.69; at TLK2, less than 4.52; on RIPK3 (cell material: Jurkat cells), 4.85; on RIPK3 (cell material: Jurkat lysate), 4.67.
`CCNC(=O)c1cc(Nc2cc(C3CC3)[nH]n2)nc(N2CCN(Cc3ccc(S(=O)(=O)F)cc3)CC2)n1` had a pIC50 at LZK of 5.12.
With `O=C(NCCNC(=O)c1cc(Nc2cc(C3CC3)[nH]n2)nc(N2CCN(Cc3ccc(S(=O)(=O)F)cc3)CC2)n1)OC1CC/C=C/CCC1` (stereo unspecified), the pIC50 is 6.09 at ZAP70 (cell material: Jurkat cells); less than 4.52 on ZAP70 (cell material: Jurkat lysate); less than 4.52 on CAMK4 (cell material: Jurkat cells); less than 4.52 at CAMK4 (cell material: Jurkat lysate); less than 4.52 at RIOK1 (cell material: Jurkat cells); less than 4.52 at RIOK1 (cell material: Jurkat lysate). Further, the pIC50 on UniProt Q9H093, on PRKG2, at PIK3R4, at TLK2 and at RIPK3 (cell material: Jurkat lysate) was less than 4.52 each time.
Turning to `CCNC(=O)c1cc(Nc2cc(C)[nH]n2)nc(N2CCN(Cc3ccc(S(=O)(=O)F)cc3)CC2)n1`, on TLK1 (cell material: Lysate mix), the pIC50 amounted to 4.92.
